What was measured:
γH2AX in A3 cells = assay: Phosphorylated γH2AX (immunofluorescence / flow cytometry); format: cell-based, human; conditions: 10 μM
Procedure: A3 cells were seeded in a 96-well plate 24 h prior to start of the experiment. Cells were then treated with 10 μM TH5487, for 24, 48 and 72 h, respectively or with 2 mM hydroxyurea for 1 h. Final DMSO concentration was 0.2%. After the treatment, cells were transferred to an imaging plate (black Falcon 96-well plate) pre-coated with 0.1% poly L-lysine (Sigma). Cells were allowed to attach for 15 minutes and were then fixed with 4% paraformaldehyde. The plate was washed with 0.05% Tween 20 in PBS, cells were permeabilized with 0.5% Triton-X100 in PBS and blocked with 2% bovine serum albumin in PBS. […] Data from three independent experiments were pooled and analyzed for statistical significance by one-way analysis of variance.
At the indicated time points, compound/dox treated cells were incubated in medium containing 10 μM 5-ethynyl-2′-deoxyuridine (EdU) (Thermo Fisher, A10044) for 20 min. […] Data was analyzed using Kaluza® Flow Analysis Software (Beckman Coulter).
Figure 5. […] A3 cells were treated with 20 mM KBrO3 for 1 h or with 10 μM TH5487 for the indicated times, and the amount of genomic 8-oxodG was quantified with LC-MS/MS. […] A3 cells were treated with 10 μM TH5487 for 72 h and strand-breaks and OGG1 substrate lesions were analyzed with the OGG1-modified Comet assay. […] At least 33 000 nuclei per group were quantified from three independent experiments. […]

A3 cells = assay: A3 cell numbers and viability; format: cell-based, human
Procedure: Figure 4. Anticancer properties overlap between OGG1 loss and OGG1 inhibitors. (A) Viability of T-cell acute […] leukemia cell lines treated for 5 days with the indicated doses TH5487. Data are average ±SD of independent experiments (A3, n = 5; Jurkat, n = 3; MOLT-4, n = 4; CCRF-CEM, n = 3). (B) Relative cell numbers and (C) viability (%) for A3 cells treated for 5 days with 10 μM TH5487. Data are average ±SD of six replicates from three independent experiments. (D) Induction of apoptosis in A3 cells treated for 72 h TH5487 and stained for Annexin V. Data are average ±SD of three independent experiments. (E) A3 cells transfected with shRNA targeting OGG1 were treated with doxycycline for 6 days and stained for Annexin V. Data are average ±SD of two independent experiments. (F) Scheme for recovery experiment in which A3 OGG1-shRNA cells or A3 cells were silenced or inhibited for 6 days with doxycycline (200 nM) or TH5487 (10 μM). […] Data are average ±SD of 2–6 technical replicates representative of two independent experiments (I). Scheme for off-target effect evaluation in which A3 OGG1-shRNA cells were exposed to doxycycline for six days and after that, cells were exposed to TH5487 (10 μM) for 48 h followed by measurements of cell numbers (J) and viability by trypan blue exclusion (K). Data are average ±SD of two technical replicates from four independent experiments. Statistical significance was determined using unpaired, two-sided t-tests (*P < 0.05, **P < 0.01, ***P < 0.001, ****P < 0.0001, ns, non-significant).

[1] = set-up: method as in PMID 30442810; conditions: cited from earlier work

SMILES: O=C(Nc1ccc(I)cc1)N1CCC(n2c(=O)[nH]c3c(Br)cccc32)CC1 [TH5487]
- Cell cycle distribution of γH2AX positive cells (γH2AX in A3 cells; 72 h): confined to S-phase cells
- Phosphorylated γH2AX (γH2AX in A3 cells; after 24 h): significant increase
- Recovery of proliferation after release into fresh medium (A3 cells; A3 cells exposed for 6 days to 10 μM): able to divide normally
- Cell viability (A3 cells; A3 cells, 10 μM, after 72 h): mild decrease in cell viability
- Proliferation (relative cell numbers) (A3 cells; A3 cells, 10 μM, up to 72 h): slower proliferation
- Stability in mouse serum [1]: stable
